In the experiment the test system is IFN-a/Jak1 Tyk2. The experiment can be described thus: Co-stimulation assay in lysed whole blood: IFNa (JAK1/TYK2) stimulated STAT1 phosphorylation. Type of experiment: cell-based. The conditions noted are these: 100 ng/mL IFNa (with 10 ng/mL GM-CSF), pSTAT by flow cytometry. The essentials: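 Lysed human whole blood (RBC-lysed, resuspended in cRPMI) pre-incubated with compound 1 h at 37 °C, then stimulated 20 min with IFNa 100 ng/mL plus GM-CSF 10 ng/mL (final). Fixed, permeabilised, stained for pSTAT1 (PE) and pSTAT5 (AF488); flow cytometry read-out, ≥5,000–10,000 cells acquired.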
(In general: In flow cytometry, cells or beads pass a laser one at a time.)

Molecules are shown by their SMILES.

As for `CNc1cc(Nc2cc(F)cc3c2OCCO3)nc2c(NC(=O)NCC(N)=O)cnn12` [Compound 118, 2-(3-(5-((7-fluoro-2,3-dihydrobenzo[b][1,4]dioxin-5-yl)amino)-7-(methylamino)pyrazolo[1,5-a]pyrimidin-3-yl)ureido)acetamide], the IC50 (usually the concentration that inhibits the measured activity by half) (Homo sapiens, 20 min) was under 1000 nM.
In turn, `CNc1cc(Nc2cccc3c2OCCO3)nc2c(NC(=O)NC(C)C#N)cnn12` (centres unmarked) [Compound 119, 1-(1-cyanoethyl)-3-(5-((2,3-dihydrobenzo[b][1,4]dioxin-5-yl)amino)-7-(methylamino)pyrazolo[1,5-a]pyrimidin-3-yl)urea] registered a concentration for half-maximal inhibition (IC50) (Homo sapiens, 20 min) of under 1000 nM.
With `CNc1cc(Nc2cc(F)cc3c2OCCO3)nc2c(NC(=O)NC(C)C#N)cnn12` (centres unmarked) [Compound 120, 1-(1-cyanoethyl)-3-(5-((7-fluoro-2,3-dihydrobenzo[b][1,4]dioxin-5-yl)amino)-7-(methylamino)pyrazolo[1,5-a]pyrimidin-3-yl)urea], the half-maximal inhibitory concentration (IC50) (Homo sapiens, 20 min) was under 1000 nM.
The same measure, in the same setting: next, `CNc1cc(Nc2cccc3c2OCCO3)nc2c(NC(=O)N[C@@H](C)C#N)cnn12` [Compound 121, (S)-1-(1-cyanoethyl)-3-(5-((2,3-dihydrobenzo[b][1,4]dioxin-5-yl)amino)-7-(methylamino)pyrazolo[1,5-a]pyrimidin-3-yl)urea]: under 1000 nM.
For the setting “Homo sapiens, 20 min”, `CNc1cc(Nc2cccc3c2OCCO3)nc2c(NC(=O)N[C@H](C)C#N)cnn12` [Compound 122, (R)-1-(1-cyanoethyl)-3-(5-((2,3-dihydrobenzo[b][1,4]dioxin-5-yl)amino)-7-(methylamino)pyrazolo[1,5-a]pyrimidin-3-yl)urea] displayed an IC50 of under 1000 nM.
With `C#C[C@H](C)NC(=O)Nc1cnn2c(NC)cc(Nc3cccc4c3OCCO4)nc12` [Compound 123, (S)-1-(but-3-yn-2-yl)-3-(5-((2,3-dihydrobenzo[b][1,4]dioxin-5-yl)amino)-7-(methylamino)pyrazolo[1,5-a]pyrimidin-3-yl)urea], the IC50 (Homo sapiens, 20 min) was under 1000 nM.
On to `CNc1cc(Nc2cc(F)cc3c2OCCO3)nc2c(NC(N)=O)cnn12` [Compound 124, 1-(5-((7-fluoro-2,3-dihydrobenzo[b][1,4]dioxin-5-yl)amino)-7-(methylamino)pyrazolo[1,5-a]pyrimidin-3-yl)urea], for which the IC50 (Homo sapiens, 20 min) was under 1000 nM.
Still for that read-out and setting: for `CNc1cc(Nc2cccc3c2OCCO3)nc2c(NC(=O)NC3CS(=O)(=O)C3)cnn12` [Compound 125, 1-(5-((2,3-dihydrobenzo[b][1,4]dioxin-5-yl)amino)-7-(methylamino)pyrazolo[1,5-a]pyrimidin-3-yl)-3-(1,1-dioxidothietan-3-yl)urea] the value was 1000 to 10000 nM; for `CNc1cc(Nc2cc(F)cc3c2OCCO3)nc2c(NC(=O)NC3CS(=O)(=O)C3)cnn12` [Compound 126, 1-(1,1-dioxidothietan-3-yl)-3-(5-((7-fluoro-2,3-dihydrobenzo[b][1,4]dioxin-5-yl)amino)-7-(methylamino)pyrazolo[1,5-a]pyrimidin-3-yl)urea], 1000 to 10000 nM; for `CNc1cc(Nc2cccc3cccnc23)nc2c(NC(=O)NCC#N)cnn12` [Compound 127, 1-(cyanomethyl)-3-(7-(methylamino)-5-(quinolin-8-ylamino)pyrazolo[1,5-a]pyrimidin-3-yl)urea], under 1000 nM.
The molecule `CNc1cc(Nc2cc(C)cc(C)c2)nc2c(NC(=O)NCC#N)cnn12` [Compound 128, 1-(cyanomethyl)-3-(5-((3,5-dimethylphenyl)amino)-7-(methylamino)pyrazolo[1,5-a]pyrimidin-3-yl)urea] returned an IC50 (Homo sapiens, 20 min) of under 1000 nM.
Still for that read-out and setting: for `CNc1cc(Nc2cc(C)ccc2OC)nc2c(NC(=O)NCC#N)cnn12` [Compound 129, 1-(cyanomethyl)-3-(5-((2-methoxy-5-methylphenyl)amino)-7-(methylamino)pyrazolo[1,5-a]pyrimidin-3-yl)urea] the value was under 1000 nM; for `CNc1cc(-c2cn(C(C)C)c3ncccc23)nc2c(NC(=O)NCC#N)cnn12` [Compound 130, 1-(cyanomethyl)-3-(5-(1-isopropyl-1H-pyrrolo[2,3-b]pyridin-3-yl)-7-(methylamino)pyrazolo[1,5-a]pyrimidin-3-yl)urea], under 1000 nM; for `CNc1cc(Nc2cccc3occc23)nc2c(NC(=O)NCC#N)cnn12` [Compound 131, 1-(5-(benzofuran-4-ylamino)-7-(methylamino)pyrazolo[1,5-a]pyrimidin-3-yl)-3-(cyanomethyl)urea], under 1000 nM.
In turn, `CNc1cc(Nc2cccc3nccnc23)nc2c(NC(=O)NCC#N)cnn12` [Compound 132, 1-(cyanomethyl)-3-(7-(methylamino)-5-(quinoxalin-5-ylamino)pyrazolo[1,5-a]pyrimidin-3-yl)urea] had an IC50 (Homo sapiens, 20 min) of under 1000 nM.
With `CNc1cc(Nc2cc(F)cc3c2OCCO3)nc2c(NC(=O)NCC(F)F)cnn12` [Compound 133, 1-(2,2-difluoroethyl)-3-(5-((7-fluoro-2,3-dihydrobenzo[b][1,4]dioxin-5-yl)amino)-7-(methylamino)pyrazolo[1,5-a]pyrimidin-3-yl)urea], the half-maximal inhibitory concentration (IC50) (Homo sapiens, 20 min) is 1000 to 10000 nM.
The molecule `CNc1cc(Nc2cccc3c2OCCO3)nc2c(NC(=O)NCC(F)F)cnn12` [Compound 134, 1-(2,2-difluoroethyl)-3-(5-((2,3-dihydrobenzo[b][1,4]dioxin-5-yl)amino)-7-(methylamino)pyrazolo[1,5-a]pyrimidin-3-yl)urea] registered an IC50 (Homo sapiens, 20 min) of 1000 to 10000 nM.
`C#CCNC(=O)Nc1cnn2c(NC)cc(Nc3c(F)ccc4c3OCCO4)nc12` [Compound 135, 1-(5-((6-fluoro-2,3-dihydrobenzo[b][1,4]dioxin-5-yl)amino)-7-(methylamino)pyrazolo[1,5-a]pyrimidin-3-yl)-3-(prop-2-yn-1-yl)urea]: where the note is “Homo sapiens, 20 min”, the IC50 lay in the range of 1000 to 10000 nM.
Consider `CNc1cc(Nc2c(F)ccc3c2OCCO3)nc2c(NC(=O)NCC#N)cnn12` [Compound 136, 1-(cyanomethyl)-3-(5-((6-fluoro-2,3-dihydrobenzo[b][1,4]dioxin-5-yl)amino)-7-(methylamino)pyrazolo[1,5-a]pyrimidin-3-yl)urea], for which, under “lysed human whole blood, 20 minutes”, the IC50 lay within 1000 to 10000 nM.
Molecule `CNc1cc(-c2cn(C3CCOCC3)c3ncccc23)nc2c(NC(=O)NCC#N)cnn12` [Compound 137, 1-(cyanomethyl)-3-(7-(methylamino)-5-(1-(tetrahydro-2H-pyran-4-yl)-1H-pyrrolo[2,3-b]pyridin-3-yl)pyrazolo[1,5-a]pyrimidin-3-yl)urea] came in with an IC50 (Homo sapiens, 20 min) of under 1000 nM.
On the same count and under the same terms, for `CNc1cc(Nc2cccc3c2OCCO3)nc2c(NC(=O)NCC3(C#N)CC3)cnn12` [Compound 138, 1-((1-cyanocyclopropyl)methyl)-3-(5-((2,3-dihydrobenzo[b][1,4]dioxin-5-yl)amino)-7-(methylamino)pyrazolo[1,5-a]pyrimidin-3-yl)urea] the value was under 1000 nM; for `CNc1cc(Nc2cccc3c2OCCO3)nc2c(NC(=O)NC3CC3)cnn12` [Compound 139, 1-cyclopropyl-3-(5-((2,3-dihydrobenzo[b][1,4]dioxin-5-yl)amino)-7-(methylamino)pyrazolo[1,5-a]pyrimidin-3-yl)urea], under 1000 nM; for `CNc1cc(Nc2cccc3c2OCCO3)nc2c(NC(=O)N(C)C)cnn12` [Compound 140, 3-(5-((2,3-dihydrobenzo[b][1,4]dioxin-5-yl)amino)-7-(methylamino)pyrazolo[1,5-a]pyrimidin-3-yl)-1,1-dimethylurea], at least 10000 nM.
The same measure, in the same setting: for `CNc1cc(Nc2cccc3c2OCCO3)nc2c(NC(=O)NCC(C)(C)CO)cnn12` [Compound 141, 1-(5-((2,3-dihydrobenzo[b][1,4]dioxin-5-yl)amino)-7-(methylamino)pyrazolo[1,5-a]pyrimidin-3-yl)-3-(3-hydroxy-2,2-dimethylpropyl)urea] the value was 1000 to 10000 nM.
As to `CNC(=O)Nc1cnn2c(NC)cc(Nc3ccc(F)c4c3OCCO4)nc12` [Compound 142, 1-(5-((8-fluoro-2,3-dihydrobenzo[b][1,4]dioxin-5-yl)amino)-7-(methylamino)pyrazolo[1,5-a]pyrimidin-3-yl)-3-methylurea], the IC50 (Homo sapiens, 20 min) was under 1000 nM.
For the setting “Homo sapiens, 20 min”, `CNC(=O)Nc1cnn2c(NC)cc(Nc3cc(F)cc(F)c3OC)nc12` [Compound 143, 1-(5-((3,5-difluoro-2-methoxyphenyl)amino)-7-(methylamino)pyrazolo[1,5-a]pyrimidin-3-yl)-3-methylurea] gave an IC50 of under 1000 nM.
Under “Homo sapiens, 20 min”, `[2H]C([2H])([2H])NC(=O)Nc1cnn2c(NC)cc(Nc3cccc4c3OCCO4)nc12` [Compound 144, 1-(5-((2,3-dihydrobenzo[b][1,4]dioxin-5-yl)amino)-7-(methylamino)pyrazolo[1,5-a]pyrimidin-3-yl)-3-(methyl-d3)urea] gave an IC50 of under 1000 nM.
For the molecule `CNc1cc(Nc2cccc3c2OCCO3)nc2c(NC(=O)NCCO)cnn12` [Compound 145, 1-(5-((2,3-dihydrobenzo[b][1,4]dioxin-5-yl)amino)-7-(methylamino)pyrazolo[1,5-a]pyrimidin-3-yl)-3-(2-hydroxyethyl)urea], the IC50 (Homo sapiens, 20 min) is 1000 to 10000 nM.
Regarding `CNC(=O)Nc1cnn2c(NC)cc(Nc3ccccc3)nc12` [Compound 146, 1-methyl-3-(7-(methylamino)-5-(phenylamino)pyrazolo[1,5-a]pyrimidin-3-yl)urea], the 50% inhibitory concentration (IC50) (Homo sapiens, 20 min) lay in the range of 1000 to 10000 nM.
`CCNC(=O)Nc1cnn2c(NC)cc(Nc3cccc4c3OCCO4)nc12` [Compound 147, 1-(5-((2,3-dihydrobenzo[b][1,4]dioxin-5-yl)amino)-7-(methylamino)pyrazolo[1,5-a]pyrimidin-3-yl)-3-ethylurea] had an IC50 (Homo sapiens, 20 min) of under 1000 nM.
For the setting “Homo sapiens, 20 min”, `CNc1cc(Nc2cccc3c2OCCO3)nc2c(NC(=O)NC(C)C)cnn12` [Compound 148, 1-(5-((2,3-dihydrobenzo[b][1,4]dioxin-5-yl)amino)-7-(methylamino)pyrazolo[1,5-a]pyrimidin-3-yl)-3-isopropylurea] displayed an IC50 of under 1000 nM.
On the same count and under the same terms, for `CNC(=O)Nc1cnn2c(NC)cc(Nc3ccccc3OC)nc12` [Compound 149, 1-(5-((2-methoxyphenyl)amino)-7-(methylamino)pyrazolo[1,5-a]pyrimidin-3-yl)-3-methylurea] the value was under 1000 nM.
